One data set in a line: in vitro. The source says:
Additionally, those molecular entities that are footnoted as “2” had permeability measurements obtained in an aqueous buffer and a buffer having 20 percent acetonitrile added thereto. For this example, a PAMPA Evolution instrument from pION INC of Woburn, Mass.
Solution pH was adjusted using a universal buffer as well as a buffer solution having a pH of 7.4 and containing a chemical scavenger to simulate serum proteins, which can be obtained from pION INC of Woburn, Mass. […] Donor and acceptor microtitre plates with 96 compartments were also employed for this example. The acceptor plate was obtained from Millipore Corporation of Billerica, Mass.
This approach for determining Pe is often referred to as the pKa^FLUX method.
As indicated above, the acceptor solutions contained a surfactant in order to mimic some of the function of serum proteins.
When not being stirred, a PAMPA sandwich was formed and permitted to incubate in the GUT-BOX at about 23° C. for up to several hours in an atmosphere saturated in humidity and scrubbed free of oxygen and carbon dioxide. Preferably, incubation was performed for up to about four hours. […] For example, the stirring members in FIG. 10 can be magnetized flippers that are controlled by a magnetic stirrer in the GUT-BOX, which causes the members to rotate about a horizontal axis. A speed dial for the magnetic stirrer, as described above, can be calibrated in units of thickness of the expected boundary layer rather than as standard units such as rpm.
After a permeation time in the GUT-BOX was reached, the PAMPA sandwich could then be separated and the donor and acceptor compartments studied for the amount of entity present. The amount of entity present was determined from UV measurements compared to UV spectra obtained from reference standards. The reference UV spectra were performed in a range from about 230 to 500 nanometers (nm). Moreover, mass balance was used to determine the amount of material retained by the porous support and DOUBLE-SINK GIT-0 lipid as generally described by Avdeef et al., Eur. J. Pharm.
The determination of Pe also accounted for the porous support area and its porosity. In particular, the support area of 0.3 centimeters squared (cm^2) was multiplied by the apparent porosity (εa) of the support, which was about 0.76, such as generally described by Nielsen et al., Eur. J. Pharm.
The majority of the data in Tables 1 through 5 is from unstirred assays and those stirred at about 186 rpm. […] The maximum speed used for these entities was 622 rpm.
Again, several entities were studied in a buffer comprising about 20 percent acetonitrile. These entities are footnoted as “1” in Tables 1 through 5. […] Tables 1 through 5 are provided below with Table 1 at 0 rpm, Table 2 stirred at 49 rpm, Table 3 stirred at 118 rpm, Table 4 stirred at 186 rpm and Table 5 stirred at 622 rpm. Tables 1 through 5 also include the standard deviation (SD) of determined Pu values.
The boundary layer thickness (h) in Tables 1 through 5 can be determined by […] of diffusion, which is
Pu values derived at various stirring speeds by using the pKa^FLUX method, as described above, were also subjected to a hydrodynamic analysis using the equation Pu=Kν^α in a logarithmic form. For example, FIG. 13 provides a plot of the logarithm of Pu versus the logarithm of ν comprising 36 measurements based on 14 molecular entities studied at several different stirring speeds. The intercept in such a plot is the logarithm of the stirring efficiency factor (K) with the slope being the hydrodynamic factor (α).

Another data set concerns Caco-2 type cells. As to conditions: testosterone data at 22° C., Adson et al.; dashed line FIG. 15; cited from earlier work.
For data set [1] the following is noted: testosterone at 37° C., Karlsson et al.; dotted curve FIG. 15; cited from earlier work.
Setting [2] is: PAMPA, Pu (boundary layer permeability).
[3] abbreviates: 0 rpm (unstirred), aqueous buffer, pKa^FLUX method.
The mark [4] stands for this setting: PAMPA, Pu (boundary layer permeability), 0 rpm (unstirred), aqueous buffer, pKa^FLUX method.

Molecules are shown by their SMILES. Structures can show the parent of a compound that is named as a salt.

By Papp is commonly meant the rate of passage across a membrane or cell layer, normalised by area and donor concentration. A lower Papp goes with slow passage. Compound `O=C(O)c1ccc2ccccc2c1` [2-naphthoic acid] gave an apparent permeability coefficient (Papp) at 50 µM in “in vitro” (setting [2]) of 595 ×10⁻⁶ cm/s. Still for that read-out and setting: in the case of `O=C(O)Cc1cccc(O)c1` [3-hydroxyphenylacetic acid] it was 50 ×10⁻⁶ cm/s. Regarding `CCCCN1CCN(c2cc3c(cc2F)c(=O)c(C(=O)O)cn3C2CC2)CC1C` (stereo not shown) [4′N-Bu-3′-Me-ciprofloxacin], the “Pu (boundary layer permeability)” value in the data set “in vitro” (setting [3]) worked out at 23. On the same count and under the same terms, as for `CCN1CCN(c2cc3c(cc2F)c(=O)c(C(=O)O)cn3C2CC2)CC1C` (stereo not shown) [4′N-Et-3′-Me-ciprofloxacin], the figure is 53; as for `CCCN1CCN(c2cc3c(cc2F)c(=O)c(C(=O)O)cn3C2CC2)CC1C` (stereo not shown) [4′N-Pr-3′-Me-ciprofloxacin], 40. As for `CCCC(=O)Nc1ccc(OCC(O)CNC(C)C)c(C(C)=O)c1` (stereo not shown) [Acebutolol, acebutolol], the Papp at 50 µM in the data set “in vitro” (setting [2]) turned out to be 63 ×10⁻⁶ cm/s. Still for that read-out and setting: in the case of `CCOC(=O)C1=C(COCCN)NC(C)=C(C(=O)OC)C1c1ccccc1Cl` (stereo not shown) [Amlodipine, amlodipine-maleate] it was 1380 ×10⁻⁶ cm/s. The same measure, in the same setting: in the case of `COc1ccc(CCN2CCC(Nc3nc4ccccc4n3Cc3ccc(F)cc3)CC2)cc1` [Astemizole, astemizole] it was 746 ×10⁻⁶ cm/s. In the data set “in vitro” (PAMPA), `C[C@@H](CO)NC(=O)[C@@H]1C=C2c3cccc4[nH]cc(c34)C[C@H]2N(C)C1` [Ergonovine, ergonovine] showed an apparent permeability coefficient (Papp) at 50 µM of 25 ×10⁻⁶ cm/s. In turn, `CC(C)Cc1ccc(C(C)C(=O)O)cc1` (stereo not shown) [Ibuprofen, ibuprofen] displayed a Papp at 50 µM in “in vitro” (setting [2]) of 40 ×10⁻⁶ cm/s. As to `CCC(C)n1ncn(-c2ccc(N3CCN(c4ccc(OCC5COC(Cn6cncn6)(c6ccc(Cl)cc6Cl)O5)cc4)CC3)cc2)c1=O` (stereo not shown) [Itraconazole, itraconazole], the “Pu (boundary layer permeability)” value in “in vitro” (PAMPA, 50 µM) turned out to be 2210. In addition, in the data set “in vitro” (setting [2]), the Papp at 50 µM is 1360 ×10⁻⁶ cm/s. Compound `Cc1c(OCC(F)(F)F)ccnc1C[S+]([O-])c1nc2ccccc2[nH]1` (stereo not shown) [Lansoprazole, lansoprazole] returned an apparent permeability (Papp) at 50 µM in “in vitro” (setting [2]) of 35 ×10⁻⁶ cm/s. For `Clc1ccc(COC(Cn2ccnc2)c2ccc(Cl)cc2Cl)c(Cl)c1` (stereo not shown) [Miconazole, miconazole-nitrate], the “Pu (boundary layer permeability)” value in “in vitro” (PAMPA, 50 µM) is 1520. In the data set “in vitro” (setting [2]), the Papp at 50 µM came out at 1690 ×10⁻⁶ cm/s. In turn, `CCn1cc(C(=O)O)c(=O)c2ccc(C)nc21` [Nalidixic acid, nalidixic acid] yielded an apparent permeability (Papp) at 50 µM in “in vitro” (setting [2]) of 44 ×10⁻⁶ cm/s. Same read-out and setting: in the case of `O=C1C[C@@H](c2ccc(O)cc2)Oc2cc(O)cc(O)c21` [Naringenin, naringenin] it was 39 ×10⁻⁶ cm/s. Still for that read-out and setting: in the case of `COC(=O)C1=C(C)NC(C)=C(C(=O)OCCN(C)Cc2ccccc2)C1c1cccc([N+](=O)[O-])c1` (stereo not shown) [Nicardipine, nicardipine] it was 1250 ×10⁻⁶ cm/s; in that of `CNCCC=C1c2ccccc2CCc2ccccc21` [Nortriptyline, nortriptyline-HCl], 60 ×10⁻⁶ cm/s. Regarding `Cc1nccn1CC1CCc2c(c3ccccc3n2C)C1=O` (stereo not shown) [Ondansetron, ondansetron], the “Pu (boundary layer permeability)” value in “in vitro” (PAMPA) worked out at 6949. Also, the Papp at 50 µM in the data set “in vitro” (setting [2]) amounted to 59 ×10⁻⁶ cm/s. Compound `O=C1NC(=O)C(c2ccccc2)(c2ccccc2)N1` [Phenytoin, phenytoin-Na] yielded a Papp at 50 µM in the data set “in vitro” (setting [2]) of 26 ×10⁻⁶ cm/s. Same read-out and setting: as for `CN1C(C(=O)Nc2ccccn2)=C(O)c2ccccc2S1(=O)=O` [Piroxicam, piroxicam], the figure is 31 ×10⁻⁶ cm/s; as for `COc1cc2nc(N3CCN(C(=O)c4ccco4)CC3)nc(N)c2cc1OC` [Prazosin, prazosin-HCl], 38 ×10⁻⁶ cm/s. With `CC(C)NCC(O)COc1cccc2ccccc12` (stereo not shown) [Propranolol, propranolol-HCl], the Papp at 50 µM in “in vitro” (setting [4]) was found to be 41 ×10⁻⁶ cm/s; in the data set “in vitro” (PAMPA, Pu (boundary layer permeability), stirred at 49 rpm, aqueous buffer) it was 369 ×10⁻⁶ cm/s; in the data set “in vitro” (PAMPA, Pu (boundary layer permeability), stirred at 118 rpm, aqueous buffer), 601 ×10⁻⁶ cm/s; in “in vitro” (PAMPA, Pu (boundary layer permeability), stirred at 186 rpm, aqueous buffer) it was 951 ×10⁻⁶ cm/s; in the data set “in vitro” (PAMPA, Pu (boundary layer permeability), stirred at 622 rpm, aqueous buffer), 3110 ×10⁻⁶ cm/s.

Regarding `CNCCCC1c2ccccc2C=Cc2ccccc21` [Protriptyline, protriptyline-HCl], the Papp at 50 µM in “in vitro” (setting [2]) amounted to 2150 ×10⁻⁶ cm/s. On the same count and under the same terms, in the case of `O=C(O)c1ccccc1O` [Salicylic acid, salicylic acid] it was 37 ×10⁻⁶ cm/s; in that of `CC(C)(C)c1ccc(C(O)CCCN2CCC(C(O)(c3ccccc3)c3ccccc3)CC2)cc1` (stereo not shown) [Terfenadine, terfenadine], 2440 ×10⁻⁶ cm/s. Regarding `CCOC(=O)C1=C(CSCCN)NC(C)=C(C(=O)OC)C1c1cccc([N+](=O)[O-])c1` (stereo not shown) [Tiamdipine, tiamdipine], in “in vitro” (PAMPA), the “Pu (boundary layer permeability)” value amounted to 951. With `CC(=O)CC(c1ccccc1)c1c(O)c2ccccc2oc1=O` (stereo not shown) [Warfarin, warfarin], the Papp at 50 µM in “in vitro” (setting [4]) was found to be 70 ×10⁻⁶ cm/s. In turn, `CN(C)C/C=C(/c1ccc(Br)cc1)c1cccnc1` [Zimelidine, zimelidine] returned an apparent permeability coefficient (Papp) at 50 µM in “in vitro” (setting [2]) of 1670 ×10⁻⁶ cm/s.

Turning to `C[C@]12CC[C@H]3[C@@H](CCC4=CC(=O)CC[C@@]43C)[C@@H]1CC[C@@H]2O` [testosterone], the Daq in the data set on Caco-2 type cells was 5e-06 cm/s; in data set [1], 7.84e-06 cm/s.
